Source: patent publication US20060069132A1, “Azolecarboxamide herbicides” (priority 2004, published 2006)
Like-named read-outs stand apart in the source and are kept apart here.

What was measured:
[1] = test system: morningglory; assay: Test A pre-/postemergence herbicide test; type: in vivo, Ipomoea spp.; conditions: Ipomoea, 240 h; for pest or weed control at 500 g/ha: 500 g ai/ha; for pest or weed control at 2000 g/ha: 2000 g ai/ha
Summary of the method: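 Both application timings were run together: directed soil spray over freshly planted seeds in sandy loam, and runoff spray onto 2–10 cm seedlings. Evaluation after ~10 days in greenhouse used a 0–100 visual scale versus untreated controls.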

[2] = test system: kochia; assay: Test C pre-/postemergence herbicide test; type: in vivo, Kochia scoparia; conditions: for pest or weed control at 62 g/ha / pest or weed control at 125 g/ha / pest or weed control at 250 g/ha / pest or weed control at 500 g/ha: Bassia scoparia, pre-emergence, read-out: Plant response rating, Kochia
Summary of the method: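 Emerged plants at the 1- to 4-leaf stage (2–18 cm), or freshly planted seeds, received test chemicals in a non-phytotoxic solvent mixture with surfactant. Response was visually scored against controls after 12 to 14 days in the greenhouse, on a 0 (no effect) to 100 (complete control) scale.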

[3] = test system: johnsongrass; assay: Test E pre-/postemergence herbicide test; type: in vivo, Sorghum halepense
Summary of the method: (§1)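 Postemergence treatment targeted plants at the 1- to 4-leaf stage (2–18 cm), alongside preemergence treatment of planted seed; both used a non-phytotoxic solvent mixture with surfactant. Visual ratings, 0 = no effect to 100 = complete control, were taken 12 to 14 days later.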

[4] = test system: southern sandbur; assay: Test E pre-/postemergence herbicide test; type: in vivo, Cenchrus echinatus
Summary of the method: as §1

[5] = test system: Italian ryegrass; assay: Test E pre-/postemergence herbicide test; type: in vivo, Lolium multiflorum
Summary of the method: as §1

[6] = test system: broadleaf signalgrass; assay: Test E pre-/postemergence herbicide test; type: in vivo, Brachiaria platyphylla
Summary of the method: as §1

[7] = test system: Italian ryegrass; assay: Test C postemergence herbicide test; type: in vivo, Lolium multiflorum
Summary of the method: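 Weeds and wheat were sprayed after emergence, at a height of 2 to 18 cm (1–4 leaves), and paddy barnyardgrass was flooded and treated at two leaves. Assessment took place 12–14 days later in the greenhouse on a 0-to-100 visual control scale. A dash means no result was obtained.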

[8] = post-emergence, Postemergence, 0 to 100 scale, 0 no effect, 100 complete control, read-out: Morningglory plant response rating
[9] = post-emergence, Postemergence, 0 to 100 scale, 0 no effect, 100 complete control, read-out: Plant response rating, Morningglory
[10] = pre-emergence, Preemergence, visual rating, 0 to 100 scale (0 no effect, 100 complete control), read-out: Morningglory plant response rating
[11] = pre-emergence, preemergence, visual injury, 0 to 100 scale (0 no effect, 100 complete control), read-out: Morningglory plant response rating
[12] = 62 g ai/ha, preemergence, scale 0 to 100
[13] = 125 g ai/ha, scale 0 (no effect) to 100 (complete control), visual, 12 to 14 days
[14] = 500 g ai/ha, scale 0 to 100 (0 no effect, 100 complete control), visual, 12 to 14 days
[15] = Postemergence, 250 g ai/ha, scale 0 to 100
[16] = Preemergence, 62 g ai/ha, scale 0 to 100
[17] = Preemergence, 125 g ai/ha, scale 0 to 100
[18] = Preemergence, 250 g ai/ha, scale 0 (no effect) to 100 (complete control)
[19] = Preemergence, 500 g ai/ha, scale 0 (no effect) to 100 (complete control)
[20] = postemergence, 125 g ai/ha, scale 0 to 100
[21] = postemergence, 62 g ai/ha, scale 0 to 100
[22] = Postemergence, 500 g ai/ha, scale 0 to 100
[23] = 250 g ai/ha, scale 0-100, preemergence

| Structure (SMILES) | pest or weed control at 500 g/ha [1, 8] [%] | pest or weed control at 2000 g/ha [1, 9] [%] | pest or weed control at 2000 g/ha [1, 10] [%] | pest or weed control at 500 g/ha [1, 11] [%] | Plant response rating, Johnsongrass [3, 16] | Plant response rating, Johnsongrass [3, 17] | Plant response rating, Johnsongrass [3, 18] | Plant response rating, Johnsongrass [3, 19] | Plant response rating, Sandbur [4, 16] | Plant response rating, Sandbur [4, 17] | Plant response rating, Sandbur [4, 18] | Plant response rating, Sandbur [4, 19] | Plant response rating, Ryegrass, Italian [5, 16] | Plant response rating, Ryegrass, Italian [5, 17] | Plant response rating, Ryegrass, Italian [5, 18] | Plant response rating, Ryegrass, Italian [5, 19] | Plant response rating, Signalgrass [6, 16] | Plant response rating, Signalgrass [6, 17] | Plant response rating, Signalgrass [6, 18] | Plant response rating, Signalgrass [6, 19] | further results |
| --- | --- | --- | --- | --- | --- | --- | --- | --- | --- | --- | --- | --- | --- | --- | --- | --- | --- | --- | --- | --- | --- |
| CCc1nn(C(C)(C)C)cc1C(=O)Nc1cc(C(=O)N(C)C)ccc1F [Compound 222, N-[5-[(dimethylamino)carbonyl]-2-fluorophenyl]-1-(1,1-dimethylethyl)-3-ethyl-1H-pyrazole-4-carboxamide] | 80 | 95 | 100 | 75 | 70 | 80 | 90 | 100 | 0 | 40 | 70 | 95 | 50 | 100 | 100 | 100 | 10 | 60 | 95 | 95 | pest or weed control at 62 g/ha [2, 12]: 90%; pest or weed control at 125 g/ha [2, 13]: 100%; pest or weed control at 250 g/ha ([2]; 250 g ai/ha, scale 0-100): 100%; pest or weed control at 500 g/ha [2, 14]: 100%; Plant response rating, Johnsongrass [3, 15]: 60; Plant response rating, Johnsongrass [3, 20]: 60; Plant response rating, Johnsongrass [3, 21]: 10; Plant response rating, Sandbur [4, 22]: 80; Plant response rating, Sandbur [4, 15]: 50; Plant response rating, Sandbur [4, 20]: 10; Plant response rating, Sandbur [4, 21]: 10; Plant response rating, Ryegrass, Italian [5, 22]: 85; Plant response rating, Ryegrass, Italian [5, 15]: 85; Plant response rating, Ryegrass, Italian [5, 20]: 80; Plant response rating, Ryegrass, Italian [5, 21]: 50; Plant response rating, Signalgrass [6, 22]: 85; Plant response rating, Signalgrass [6, 15]: 80; Plant response rating, Signalgrass [6, 20]: 40; Plant response rating, Signalgrass [6, 21]: 10 |
| CCN1N=C(C(C)(C)C)CC1C(=O)Nc1cc(C(=O)N(C)C)ccc1F (stereo not shown) [Compound 268, N-[5-[(dimethylamino)carbonyl]-2-fluorophenyl]-3-(1,1-dimethylethyl)-1-ethyl-4,5-dihydro-1H-pyrazole-5-carboxamide] | 20 | 40 | 25 | 5 | 30 | 50 | 50 | 80 | 10 | 70 | 100 | 100 | 95 | 95 | 95 | 95 | 20 | 60 | 80 | 80 | pest or weed control at 62 g/ha [2, 12]: 100%; pest or weed control at 125 g/ha [2, 13]: 100%; pest or weed control at 250 g/ha ([2]; 250 g ai/ha, scale 0-100): 100%; pest or weed control at 500 g/ha [2, 14]: 100%; Plant response rating, Ryegrass, Italian ([7]; Postemergence, 250 g ai/ha, scale 0 to 100, 0 no effect, 100 complete control): 40; Plant response rating, Ryegrass, Italian [7, 20]: 30; Plant response rating, Ryegrass, Italian [7, 21]: 10 |
| CCNC(=O)c1ccc(F)c(NC(=O)c2cn(C(C)(C)C)nc2CC)c1 [Compound 193] |  |  |  |  | 20 | 75 | 85 | 95 | 0 | 10 | 20 | 60 | 20 | 90 | 100 | 100 | 10 | 60 | 70 | 95 | Plant response rating, Kochia [2, 12]: 85; Plant response rating, Kochia ([2]; 125 g ai/ha, scale 0 (no effect) to 100 (complete control), visual, 12 to 14 days, preemergence): 85; Plant response rating, Kochia [2, 23]: 100; Kochia plant response rating ([2]; Preemergence, 500 g ai/ha, scale 0 to 100, 0 no effect, 100 complete control): 100; Plant response rating, Johnsongrass [3, 22]: 80; Plant response rating, Johnsongrass [3, 15]: 70; Plant response rating, Johnsongrass [3, 20]: 70; Plant response rating, Johnsongrass [3, 21]: 40; Plant response rating, Sandbur [4, 22]: 20; Plant response rating, Sandbur [4, 15]: 10; Plant response rating, Sandbur [4, 20]: 0; Plant response rating, Sandbur [4, 21]: 0; Plant response rating, Ryegrass, Italian [5, 22]: 95; Plant response rating, Ryegrass, Italian [5, 15]: 95; Plant response rating, Ryegrass, Italian [5, 20]: 60; Plant response rating, Ryegrass, Italian [5, 21]: 30; Plant response rating, Signalgrass [6, 22]: 80; Plant response rating, Signalgrass [6, 15]: 75; Plant response rating, Signalgrass [6, 20]: 50; Plant response rating, Signalgrass [6, 21]: 10 |
| CCc1nn(C(C)C)nc1C(=O)Nc1cccc(C(=O)N2CCCCC2)c1 [Compound 385] |  |  |  |  | 10 | 10 | 30 |  | 0 | 10 | 40 |  | 10 | 30 | 60 |  | 10 | 20 | 20 |  | Plant response rating, Kochia [2, 12]: 0; Plant response rating (0 = no effect, 100 = complete control), Kochia ([2]; 125 g ai/ha, preemergence): 70; Plant response rating, Kochia [2, 23]: 85; Plant response rating, Kochia ([2]; 500 g ai/ha, scale 0 to 100 (0 no effect, 100 complete control), visual, 12 to 14 days, preemergence): 100 |
